Assay [1] has as its system Bacteria. The assay is described as follows: Inhibition of bacterial NDM1 expressed in Escherichia coli BL21 (DE3) expressing pET-24a-blaNDM-1 assessed as potentiation of meropenem-induced antibacterial activity by measuring fractional inhibitory concentration index at 16 ug/ml incubated at 37 degC for 18 hrs by spectrophotometry based checkerboard microdilution assay. (Broth dilution looks for growth in wells or tubes with falling amounts of substance.)

Assay [2] in a line: Competitive inhibition of bacterial NDM1 expressed in Escherichia coli JM109 (DE3) pre-incubated for 10 mins before nitrocefin substrate addition by spectrophotometry. Details: species or system Bacteria.
In assay [3] the test system is Bacteria. The experiment in a line: Inhibition of bacterial NDM1 expressed in Escherichia coli BL21 (DE3) expressing pET-24a-blaNDM-1 assessed as potentiation of meropenem-induced antibacterial activity by measuring fractional inhibitory concentration index at 0.25 ug/ml incubated at 37 degC for 18 hrs by spectrophotometry based checkerboard microdilution assay.
Assay [4] relates to Bacteria. The assay is described as follows: Inhibition of bacterial NDM1 expressed in Escherichia coli BL21 (DE3) expressing pET-24a-blaNDM-1 assessed as potentiation of ampicillin-induced antibacterial activity by measuring fractional inhibitory concentration index at 256 ug/ml incubated at 37 degC for 18 hrs by spectrophotometry based checkerboard microdilution assay.
In assay [5] the test system is Bacteria. The experiment in a line: Competitive inhibition of bacterial NDM1 expressed in Escherichia coli JM109 (DE3) at 200 uM pre-incubated for 10 mins before nitrocefin substrate addition by spectrophotometry.
In assay [6] the test system is Bacteria. The experiment in a line: Inhibition of bacterial NDM1 expressed in Escherichia coli BL21 (DE3) expressing pET-24a-blaNDM-1 assessed as potentiation of cefazolin-induced antibacterial activity by measuring combination MIC at >256 ug/ml incubated at 37 degC for 18 hrs by spectrophotometry based checkerboard microdilution assay.
The target of assay [7] is Beta-lactamase NDM-1 (Escherichia coli) (UniProt E5KIY2). The assay is described as follows: Inhibition of NDM1 in Escherichia coli clinical isolates assessed as potentiation of meropenem-induced antibacterial activity by measuring reduction in meropenem MIC incubated at 37 degC for 18 hrs by spectrophotometry based checkerboard microdilution assay.

Where only a bound is given, the exact number is not on record here.

With `C=CCn1c(S)nnc1-c1ccccc1O`, the fractional inhibitory concentration index (FICI) in the assay on Bacteria [1] is below 0.281; in the assay with Bacteria [3], below 0.501; in the assay on Bacteria [4], below 0.563. The same molecule returned an inhibition constant Ki in assay [2] of 720 nM. Further, the inhibition in the assay with Bacteria [5] is above 50%. Also, in the assay with Bacteria [6], the MIC worked out at 32 µg/mL. Moreover, in assay [7], the fold change (FC) was found to be 8.

By Ki is commonly meant the dissociation constant of the complex between target and ligand, obtained from inhibition or displacement. A lower Ki goes with higher affinity. As a reminder, the inhibition is the relative decrease from the control value, in per cent. Higher therefore signals a strong effect.

Source of the values: ChEMBL document CHEMBL4130619, “Structure-Based Virtual Screening for the Discovery of Novel Inhibitors of New Delhi Metallo-β-lactamase-1” (ACS Med Chem Lett, 2018).
